What all share (format): in vivo, mouse
For assay [1], the system named is apoE−/− mice. The experiment in a line: Atherosclerotic lesions in aortas (Oil-Red-O staining) of apoE−/− mice on western diet. To be noted: for atherosclerotic lesion area per full aorta: p<0.05 vs. control, FIG. 2(a). The protocol: (§1) apoE−/− mice (a commonly used model of hypercholesterolemia and atherosclerosis) were purchased from Jackson Labs. At 6 weeks of age, the mice were placed on a western diet (to further increase cholesterol levels and vascular lesions) and treatments with either phosphate buffered saline (PBS) (vehicle) or TUDCA (500 mg/kg/day, single dose, i.p.) were started.
After 3 months of western diet and treatment, mice were sacrificed and aortas were dissected and fixed in 10% buffered formalin and stained with Oil-Red-O which stains lipids.
(§2) apoE−/− mice were purchased from Jackson Labs. At 6 weeks of age, the mice were placed on a western diet and treatments with either phosphate buffered saline (PBS) (vehicle); TUDCA (50 mg/kg/day or 500 mg/kg/day, single dose, i.p.); or 4-PBA (10 mg/kg/day, 200 mg/kg/day, or 1 g/kg/day, single dose, oral gavage) were started.
After 3 months of western diet and treatment, mice were sacrificed and aortas were dissected and fixed in 10% buffered formalin and stained with Oil-Red-O. The amount of atherosclerotic lesion area per full aorta was determine and is expressed as a percent as shown in FIG. 2(a). Mice receiving vehicle (PBS) developed robust atherosclerotic lesions in the aortic arch as well as in the thoracic and abdominal parts of the aorta (0.25%±0.06). […] PBA administration at a dose of 10 mg/kg/day was also found to be effective in reducing formation of atherosclerotic lesions (0.09%±0.03, n=4, p<0.05 vs. control).

Assay [2] has as its system apoE−/− mice. Briefly: Lipoprotein profile analysis of serum by HPLC in apoE−/− mice on western diet. To be noted: Example 2, 3 months. The protocol: as §2
(§3) Blood samples were obtained from the animals described above. Lipoprotein profiles analysis was performed by HPLC (FIG. 2b), and total cholesterol levels (FIG. 2c). […] Moreover, the ability to reduce the development of atherosclerotic lesions is not dependent on the ability of a compound to reduce cholesterol.

For assay [3], the system named is apoE−/− mice. The experiment in a line: Serum total cholesterol levels in apoE−/− mice on western diet. To be noted: 3 months. The procedure: as §1
Blood samples were obtained from the animals described above and serum cholesterol levels were determined by the Piccolo automated device with lipid panel (Abaxis, Calif.).
as §2, §3

Regarding `C[C@H](CCC(=O)NCCS(=O)(=O)O)[C@H]1CC[C@H]2[C@@H]3[C@@H](O)C[C@@H]4C[C@H](O)CC[C@]4(C)[C@H]3CC[C@]12C` [TUDCA, tauroursodeoxycholic acid], the “Oil-Red-O staining of aortas” value in assay [1] (Example 1, 500 mg/kg/day, single dose, i.p., 3 months of western diet and treatment, vs PBS) was “PBS treated animals had substantially more Oil-Red-O staining”. Besides, in assay [1] (Example 2, 50 mg/kg/day i.p., 3 months, n=3), the “atherosclerotic lesion area per full aorta” value is on record as 0.03%±0.01. In assay [1] (Example 2, 500 mg/kg/day i.p., 3 months, n=3), the “atherosclerotic lesion area per full aorta” value is listed as 0.01%±0.01. In assay [2] (50 mg/kg/day i.p.), the “total cholesterol or specific lipoprotein levels” value is on record as “no significant changes”. Further, in assay [2] (500 mg/kg/day i.p., FIG. 2b), the HDL result is on record as “marked increase”, the LDL entry is on record as “significant decrease” and the VLDL result is “significant decrease”. Moreover, in assay [3] (Example 1, 500 mg/kg/day, single dose, i.p., Piccolo lipid panel, FIG. 1, vs PBS), the serum cholesterol levels result is listed as “significantly (p<0.001) lowered”. Moreover, in assay [3] (Example 2, 500 mg/kg/day i.p., FIG. 2c), the total cholesterol entry was “significant decrease”.

For `O=C(O)CCCc1ccccc1` [PBA, 4-phenyl butyrate], the “amount of atherosclerotic lesion relative to control treated animals” value in assay [1] (Example 1, about 10 mg/kg/day, similar conditions) is recorded as “effective in reducing the amount of atherosclerotic lesion”. The “atherosclerotic lesion area per full aorta” value in assay [1] (Example 2, 10 mg/kg/day oral gavage, 3 months, n=4) is 0.09%±0.03. Further, the “reduction of formation of atherosclerotic lesions” value in assay [1] (Example 2, higher doses (200 mg/kg/day, 1 g/kg/day), oral gavage, 3 months) is “no similar reduction was observed”. The “total cholesterol or specific lipoprotein levels” value in assay [2] (4-PBA oral gavage (10 mg/kg in FIG. 2)) was “no significant changes”.

For the origin of these results see patent US20090312297A1, “METHODS FOR TREATING HYPERCHOLESTEROLEMIA AND ATHEROSCLEROSIS” (PRESIDENT AND FELLOWS OF HARVARD COLLEGE, priority 2006, published 2009).
